2 compounds from patent US7102027B2, “Adamantanetricarboxylic acid derivatives” (Daicel Chemical Industries, Ltd., priority 2003, dated 2006) can be followed below.

Read-outs that look alike come from different tables or passages of the source.

The data set is described as follows: Dissolution of monomer components in mesitylene to prepare a coating liquid. The data set is classed as physicochemical. The protocol:
In 100 g of mesitylene were dissolved 2.48 g (8 mmol) of trimethyl ester of 1,3,5-adamantanetricarboxylic acid prepared in Example 1 and 6.42 g (12 mmol) of 3,3′-diaminobenzidinetetracyclohexanoimine [N,N′,N″,N′″-tetracyclohexylidene-3,4,3′,4′-biphenyltetramine] prepared in Preparation Example 1 at room temperature in a nitrogen atmosphere, to yield a coating liquid having a monomer concentration of 8.2% by weight. After filtrating through a filter with a pore size of 0.1 μm, the coating liquid was applied to an 8-inch silicon wafer by spin coating. This was heated at 300° C. in a nitrogen atmosphere for 30 minutes and was then heated at 400° C. for further 30 minutes, to form a film. The infrared absorption spectrum of the resulting polymer film was determined. The result is shown in FIG. 1, verifying that the target crosslinked polybenzazole film was formed.
A coating liquid was prepared by the procedure of Example • 7, except using equal amounts of • 1,3,5-adamantanetricarboxylic acid and • 3,3′-diaminobenzidine instead of trimethyl ester of • 1,3,5-adamantanetricarboxylic acid and • N,N′,N″,N′″-tetracyclohexylidene-3,4,3′,4′-biphenyltetramine, respectively. […] The infrared absorption spectrum of the resulting polymer film was determined, verifying that the target crosslinked polybenzazole film was formed.

In the case of `O=C(O)C12CC3CC(C(=O)O)(C1)CC(C(=O)O)(C3)C2` [1,3,5-adamantanetricarboxylic acid], the “solubility in the solvent (mesitylene)” value is given as “not sufficiently dissolved”.
With `Nc1ccc(-c2ccc(N)c(N)c2)cc1N` [3,3′-diaminobenzidine], the “solubility in the solvent (mesitylene)” value (procedure of Example 7: 8 mmol acid and 12 mmol amine together in 100 g mesitylene, room temperature, nitrogen atmosphere) is given as “not sufficiently dissolved”.
